Read-outs that look alike come from different tables or passages of the source.
Experiments:
Assay type in all cases: cell-based
Ikaros = Ikaros (Homo sapiens, UniProt Q13422+Q96SW2); assay: ePL-tagged substrate degradation kinetics in DF15 cells (enantiomer comparison); parameters: expressed in transfected cells; host or cells: DF15 cells; Ikaros Y-constant: scale not given here; conditions: for DC50: read-out: Ikaros EC50
Description: (§1) In a second assay, DF15 cell lines expressing ePL-tagged target protein substrates were used as a model system to monitor protein degradation at 0.75, 1, 1.5, 3, 4, and 24 hours over a concentration range from 1 pM to 10 μM. The proteins evaluated were Ikaros (FIG. 17), Aiolos, and ZFP91. Compound 1 and Compound 2 were both able to degrade the substrate proteins at all time points (Table 9). In a further assay, additional time points were included to monitor the effect of treatment with Compound 1 and Compound 2.
(§2) The depth of substrate protein degradation described by the Y-constant was also measured in this assay against a negative control luciferase inhibitor (CC1071297, Y-constant=0).

Aiolos = biological target: T1, Aiolos (Homo sapiens, UniProt Q96SW2+Q9UKT9); assay: as above; parameters: Aiolos Y-constant: scale not given here; conditions: for DC50: read-out: Aiolos EC50
T1 construct: expressed in transfected cells; host or cells: DF15 cells
Description: as §1, §2

[1] = system: KARPAS-422, RIVA, HT, and SU-DHL-4 cell lines; assay: Dose response in cells expressing degradation-resistant mutants of Ikaros, Aiolos, ZFP91; conditions: KARPAS-422 and SU-DHL-4
Excerpt: To test whether Ikaros and Aiolos were redundant in promoting the survival and proliferation of DLBCL lines, degradation-resistant mutants of Ikaros (IKZF1-G151A), Aiolos (IKZF3-G152A), and ZFP91 (ZFP91-G405A), along with NanoLuc luciferase (Nluc) as a control, were ectopically and stably expressed in four DLBCL cell lines: KARPAS-422, RIVA, HT, and SU-DHL-4. Dose response curves with Compound 1 indicate that expression of degradation-resistant mutants of Ikaros or Aiolos provided protection from Compound 1 in all four cell lines (FIG. 11). Additionally, the ectopic expression of the degradation-resistant mutants, as well as their protection against Compound 1-induced degradation, was confirmed by immunoblot analysis. […] Beta-actin levels were used as a control. […] However, there were varying degrees of protection observed in the four cell lines.

SU-DHL-2^CRBNWT cells = assay: Western blot time- and concentration-response of endogenous substrates; conditions: 10 and 100 nM, entire course of treatment
Excerpt: However, Compound 1 had no activity in SU-DHL-2^CRBN−/− cells, indicating the requirement of cereblon for induction of apoptosis by Compound 1 in DLBCL (FIG. 5 C).

[2] = system: KARPAS-422-Cas9 and SU-DHL-4-Cas9 knock-out cells; assay: Flow cytometry-based cellular competition assay in substrate knock-out cells; conditions: 0.1, 1, 10 nM
Excerpt: Compound 1 induces autonomous cell killing activity in DLBCL cells in a cereblon-dependent manner. To investigate the consequence of loss of a single cereblon substrate, CRISPR/Cas9-mediated knockout of a cereblon substrate coupled with a flow cytometry-based cellular competition assay was utilized to assess relative cell fitness upon gene knock-out in six DLBCL cell lines: KARPAS-422, U-2932, RIVA, SU-DHL-16, HT, and SU-DHL-4 (FIG. 7, Panel A). To perform the flow cytometry-based competition assay, stable Cas9-expressing DLBCL cells were transduced with a control non-targeting sgRNA construct containing a GFP reporter (sgNT-1-GFP), or with a sgRNA construct targeting a gene of interest containing an RFP reporter (sgRNA-RFP). For targeted knock-out of each gene, two sgRNA sequences were used to knock-out Ikaros (sgIKZF1-1, sgIKZF1-2), Aiolos (sgIKZF3-1, sgIKZF3-2), and ZFP91 (sgZFP91-1, sgZFP91-3). For controls, two non-targeting sgRNAs (sgNT-1, sgNT-2), a sgRNA targeting a non-coding region of the genome (sgNC-1), and a sgRNA targeting an established essential gene ETF1 (sgETF1-1) were included. Following transduction with sgRNAs, cells were washed and mixed at a 1:1 ratio and the percentage of GFP^+ and RFP^+ cells was measured every three days for eighteen days (FIG. 7, panel B). […]

Ikaros, sequence (Q13422 whole entry): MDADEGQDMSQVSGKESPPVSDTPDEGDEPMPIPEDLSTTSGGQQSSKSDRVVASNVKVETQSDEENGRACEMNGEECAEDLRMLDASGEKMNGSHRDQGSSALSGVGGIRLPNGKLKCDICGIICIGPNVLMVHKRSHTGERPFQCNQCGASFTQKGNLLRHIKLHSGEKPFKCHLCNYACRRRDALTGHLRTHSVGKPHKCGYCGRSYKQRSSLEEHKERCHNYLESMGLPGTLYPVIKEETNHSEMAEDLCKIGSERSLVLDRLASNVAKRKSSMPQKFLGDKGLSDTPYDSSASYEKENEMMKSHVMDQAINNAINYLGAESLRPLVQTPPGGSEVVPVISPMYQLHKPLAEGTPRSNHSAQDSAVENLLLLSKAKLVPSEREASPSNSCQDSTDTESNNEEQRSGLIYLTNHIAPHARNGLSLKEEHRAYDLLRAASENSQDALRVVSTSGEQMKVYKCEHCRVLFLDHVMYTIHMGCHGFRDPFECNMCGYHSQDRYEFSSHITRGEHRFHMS
Ikaros, sequence (Q96SW2 whole entry): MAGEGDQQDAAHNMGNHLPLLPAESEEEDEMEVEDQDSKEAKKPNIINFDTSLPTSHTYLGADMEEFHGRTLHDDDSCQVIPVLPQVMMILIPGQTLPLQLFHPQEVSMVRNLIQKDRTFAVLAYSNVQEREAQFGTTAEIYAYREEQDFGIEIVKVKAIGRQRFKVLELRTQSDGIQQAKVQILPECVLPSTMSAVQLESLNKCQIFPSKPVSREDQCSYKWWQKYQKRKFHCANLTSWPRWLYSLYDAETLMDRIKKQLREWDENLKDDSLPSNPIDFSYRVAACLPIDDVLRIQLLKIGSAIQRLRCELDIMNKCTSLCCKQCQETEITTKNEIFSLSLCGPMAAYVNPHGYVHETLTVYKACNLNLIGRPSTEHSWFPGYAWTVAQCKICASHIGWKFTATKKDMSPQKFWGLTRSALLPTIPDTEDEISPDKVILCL
Ikaros, sequence (Q16531 whole entry partner): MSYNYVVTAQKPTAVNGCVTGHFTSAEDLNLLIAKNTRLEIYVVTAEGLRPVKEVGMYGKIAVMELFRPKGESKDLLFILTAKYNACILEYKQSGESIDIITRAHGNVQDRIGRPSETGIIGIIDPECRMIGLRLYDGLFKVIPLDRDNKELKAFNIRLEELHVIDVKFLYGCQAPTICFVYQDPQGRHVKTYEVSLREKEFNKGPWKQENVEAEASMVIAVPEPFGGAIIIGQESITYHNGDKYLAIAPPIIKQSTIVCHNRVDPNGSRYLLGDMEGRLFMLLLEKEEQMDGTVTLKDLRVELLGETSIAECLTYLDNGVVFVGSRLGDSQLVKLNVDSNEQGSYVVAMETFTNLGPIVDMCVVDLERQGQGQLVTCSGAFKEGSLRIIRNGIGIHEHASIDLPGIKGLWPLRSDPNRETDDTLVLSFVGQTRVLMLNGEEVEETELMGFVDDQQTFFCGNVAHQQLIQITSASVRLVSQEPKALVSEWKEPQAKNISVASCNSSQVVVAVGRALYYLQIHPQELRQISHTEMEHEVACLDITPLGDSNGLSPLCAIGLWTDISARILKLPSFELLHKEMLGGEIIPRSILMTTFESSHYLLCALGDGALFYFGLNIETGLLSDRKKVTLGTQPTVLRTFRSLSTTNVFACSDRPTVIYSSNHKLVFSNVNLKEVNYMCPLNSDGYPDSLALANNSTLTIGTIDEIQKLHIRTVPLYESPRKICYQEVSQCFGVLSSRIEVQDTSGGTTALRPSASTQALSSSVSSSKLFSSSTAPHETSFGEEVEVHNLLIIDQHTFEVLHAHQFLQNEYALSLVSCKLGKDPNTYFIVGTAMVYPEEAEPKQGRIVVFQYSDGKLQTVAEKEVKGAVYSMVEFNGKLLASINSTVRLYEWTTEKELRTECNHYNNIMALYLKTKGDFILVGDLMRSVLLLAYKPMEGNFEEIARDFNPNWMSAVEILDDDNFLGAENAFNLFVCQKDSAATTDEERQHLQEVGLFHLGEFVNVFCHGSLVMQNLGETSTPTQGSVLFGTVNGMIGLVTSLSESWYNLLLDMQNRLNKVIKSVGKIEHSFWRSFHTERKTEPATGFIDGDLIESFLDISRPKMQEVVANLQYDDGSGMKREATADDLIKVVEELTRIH
T1 sequence (Q9UKT9 whole entry): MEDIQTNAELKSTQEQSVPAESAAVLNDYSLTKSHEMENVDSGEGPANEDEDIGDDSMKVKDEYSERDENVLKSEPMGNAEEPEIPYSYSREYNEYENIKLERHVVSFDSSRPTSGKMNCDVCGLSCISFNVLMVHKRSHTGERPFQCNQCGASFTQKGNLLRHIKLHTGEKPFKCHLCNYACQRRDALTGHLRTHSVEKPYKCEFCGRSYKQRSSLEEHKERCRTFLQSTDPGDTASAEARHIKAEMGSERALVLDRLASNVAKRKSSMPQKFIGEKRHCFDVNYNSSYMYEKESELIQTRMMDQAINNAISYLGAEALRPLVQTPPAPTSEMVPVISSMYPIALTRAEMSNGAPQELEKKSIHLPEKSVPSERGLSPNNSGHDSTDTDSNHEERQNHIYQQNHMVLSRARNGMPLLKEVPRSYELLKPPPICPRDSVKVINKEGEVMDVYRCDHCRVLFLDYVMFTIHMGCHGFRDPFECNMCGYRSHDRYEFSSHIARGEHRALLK
T1 sequence (Q96SW2 whole entry): as the sequence (Q96SW2 whole entry) above
T1 sequence (Q16531 whole entry partner): as the sequence (Q16531 whole entry partner) above

## O=C1CC[C@H](N2C(=O)c3cccc(NCc4ccc(CN5CC(N6CCOCC6)C5)cc4F)c3C2=O)C(=O)N1 [Compound 1, (S)-2-(2,6-dioxopiperidin-3-yl)-4-((2-fluoro-4-((3-morpholinoazetidin-1-yl)methyl)benzyl)amino)isoindoline-1,3-dione]
Ikaros; 0.75 hours
  Ikaros Y-constant: 39.3
  DC50: 1.25 nM
Ikaros; 1 hour
  Ikaros Y-constant: 27.5
  DC50: 1.01 nM
Ikaros; 1.5 hours
  Ikaros Y-constant: 12.5
  DC50: 0.96 nM
Ikaros; 3 hours
  Ikaros Y-constant: 8.6
  DC50: 0.81 nM
Ikaros; 4 hours
  Ikaros Y-constant: 6.8
  DC50: 0.99 nM
Ikaros; 24 hours
  Ikaros Y-constant: 2.6
  DC50: 0.35 nM
Aiolos; 0.75 hours
  Aiolos Y-constant: 46
  DC50: 0.73 nM
Aiolos; 1 hour
  Aiolos Y-constant: 29
  DC50: 0.94 nM
Aiolos; 1.5 hours
  Aiolos Y-constant: 11
  DC50: 0.72 nM
Aiolos; 3 hours
  Aiolos Y-constant: 4.8
  DC50: 0.6 nM
Aiolos; 4 hours
  Aiolos Y-constant: 3.9
  DC50: 0.56 nM
Aiolos; 24 hours
  Aiolos Y-constant: 4.0
  DC50: 0.52 nM
[1]
  protection by degradation-resistant mutants of Ikaros or Aiolos: nearly complete protection
SU-DHL-2^CRBNWT cells
  Ikaros, Aiolos, and ZFP91 protein expression: complete suppression
[2]; sgIKZF1 and sgIKZF3 knock-out cells
  RFP+/GFP+ ratio relative to DMSO-treated control cells: dose-dependent decrease
[2]; sgZFP91 cells
  dose-dependent decrease in RFP+/GFP+ ratio: not observed
